Measured values: patent US20230357253A1, “AGONISTS OF STIMULATOR OF INTERFERON GENES STING” (THE SCRIPPS RESEARCH INSTITUTE, priority 2020, published 2023)

System: THP-1 Lucia ISG cells
Experiment: ISRE-luciferase assay (ISG-LUC activation)
Assay type: cell-based
Details: Homo sapiens, THP1-Lucia ISG, 24 hours, luciferase reporter
Experimental: ISRE-luciferase assay. THP-1 Lucia ISG cells were resuspended in low-serum growth media (2% FBS) at a density of 5×10^5 cells/ml and treated with test article or vehicle (DMSO). 50 μL of cells were seeded into each well of a 384-well white greiner plates and incubated for 24 hours. To evaluate expression of the luciferase reporter, 30 μl of Quanti-luc (Invivogen) detection reagent was added to each well and luminescence was read using an Envision plate reader (Perkin Elmer) set with an integration time of 0.1 seconds. For each cell type, luminescence signals for test article samples were normalized to vehicle-treated samples and reported as relative light units (RLU).

EC50 [µM]	Structure (SMILES)
> 5	O=C(Nc1c(C(=O)O)cc(F)c(OCCCCOc2c(F)cc(C(=O)O)c(NC(=O)c3ccc(-n4ccnc4)nn3)c2F)c1F)c1ccc(O)nn1 [Compound 39]
< 0.05	O=c1oc(-c2ccc(-n3ccnc3)nn2)nc2cc(OCCCCOc3cc4nc(-c5ccc(-n6ccnc6)nn5)oc(=O)c4cc3F)c(F)cc12 [Compound 40]
< 0.05	COc1cc2c(=O)oc(-c3ccc(-n4ccnc4)nn3)nc2cc1OCCCCOc1cc2nc(-c3ccc(-n4ccnc4)nn3)oc(=O)c2cc1OC [Compound 41]
> 5	O=C(Nc1cc(OCCCCOc2ccc(C(=O)O)c(NC(=O)c3ccc(-n4ccnc4)nn3)c2)ccc1C(=O)O)c1cccnn1 [Compound 44]
> 5	O=C(Nc1cc(OCCCCOc2cnc(C(=O)O)c(NC(=O)c3ccc(-n4ccnc4)nn3)c2)cnc1C(=O)O)c1ccc(-n2ccnc2)nn1 [Compound 45]
< 0.05	COC(=O)c1cc(F)c(CCCc2cc(NC(=O)c3ccc(-n4ccnc4)nn3)c(C(=O)OC)cc2F)cc1NC(=O)c1ccc(-n2ccnc2)nn1 [Compound 51]
> 5	COC(=O)c1ccc(CCCc2ccc(NC(=O)c3ccc(-n4ccnc4)nn3)c(C(=O)OC)c2)cc1NC(=O)c1ccc(-n2ccnc2)nn1 [Compound 53]
< 0.05	COC(=O)c1cc(F)c(CCCc2cc(NC(=O)c3ccc(-n4ccnc4)nn3)c(C(=O)OC)cc2OC)cc1NC(=O)c1ccc(-n2ccnc2)nn1 [Compound 54]
0.05 to 0.5	COc1cc(C(=O)O)c(NC(=O)c2ccc(-n3ccnc3)nn2)cc1CCCc1ccc(C(=O)O)c(NC(=O)c2ccc(-n3ccnc3)nn2)c1 [Compound 56]
0.05 to 0.5	COc1cc(C(=O)O)c(NC(=O)c2ccc(-n3ccnc3)nn2)cc1CCCc1cc(NC(=O)c2ccc(-n3ccnc3)nn2)c(C(=O)O)cc1F [Compound 59]
> 5	O=C(Nc1cc(CCCc2ccc(C(=O)O)c(NC(=O)c3ccc4nnnn4n3)c2)ccc1C(=O)O)c1ccc(-n2ccnc2)nn1 [Compound 63]
0.05 to 0.5	O=C(Nc1cc(CCCc2cc(NC(=O)c3ccc(-n4ccnc4)nn3)c(C(=O)O)cc2Cl)ccc1C(=O)O)c1ccc(-n2ccnc2)nn1 [Compound 66]
0.05 to 0.5	O=C(Nc1cc(CCCc2cc(NC(=O)c3ccc4nnnn4n3)c(C(=O)O)cc2F)c(F)cc1C(=O)O)c1ccc(-n2ccnc2)nn1 [Compound 67]
0.05 to 0.5	O=C(Nc1cc(CCCc2cc(NC(=O)c3ccc(-n4ccnc4)nn3)c(C(=O)O)cc2F)ccc1C(=O)O)c1ccc(-n2ccnc2)nn1 [Compound 68]
0.5 to 5	O=C(Nc1cc(CCCc2cc(C(=O)O)c(NC(=O)c3ccc(-n4ccnc4)nn3)cc2F)c(F)cc1C(=O)O)c1ccc(-n2ccnc2)nn1 [Compound 70]
0.05 to 0.5	O=C(Nc1cc(CCCc2cc(C(=O)O)c(NC(=O)c3ccc(-n4ccnc4)nn3)cc2F)ccc1C(=O)O)c1ccc(-n2ccnc2)nn1 [Compound 78]
0.5 to 5	O=C(Nc1cc(CCCc2cc(C(=O)O)c(NC(=O)c3ccc4nnnn4n3)cc2F)c(F)cc1C(=O)O)c1ccc(-n2ccnc2)nn1 [Compound 90]
0.05 to 0.5	O=C(Nc1cc(F)c(CCCc2cc(NC(=O)c3ccc4nnnn4n3)c(C(=O)O)cc2F)cc1C(=O)O)c1ccc(-n2ccnc2)nn1 [Compound 94]
< 0.05	COC(=O)c1cc(Cl)c(CCCc2ccc(C(=O)OC)c(NC(=O)c3ccc4nnnn4n3)c2)cc1NC(=O)c1ccc(-n2ccnc2)nn1 [Compound 106]
< 0.05	COC(=O)c1cc(F)c(CCOc2cc(NC(=O)c3ccc4nnnn4n3)c(C(=O)OC)cc2F)cc1NC(=O)c1ccc(-n2ccnc2)nn1 [Compound 113]
0.5 to 5	O=C(Nc1cc(CCCOc2cc(NC(=O)c3ccc(-n4ccnc4)nn3)c(C(=O)O)cc2F)c(F)cc1C(=O)O)c1ccc(-n2ccnc2)nn1 [Compound 125]
0.5 to 5	O=C(Nc1cc(CCCOc2cc(NC(=O)c3ccc4nnnn4n3)c(C(=O)O)cc2F)c(F)cc1C(=O)O)c1ccc(-n2ccnc2)nn1 [Compound 126]
0.5 to 5	O=C(Nc1cc(CCCCc2cc(C(=O)O)c(NC(=O)c3ccc(-n4ccnc4)nn3)cc2F)c(F)cc1C(=O)O)c1ccc(-n2ccnc2)nn1 [Compound 127]
0.05 to 0.5	COc1cc(C(=O)O)c(NC(=O)c2ccc(-n3ccnc3)nn2)cc1OCCc1cc(C(=O)O)c(NC(=O)c2ccc(-n3ccnc3)nn2)cc1C#N [Compound 130]
0.5 to 5	COC(=O)Cc1cc(F)c(CCOc2cc(NC(=O)c3ccc(-n4ccnc4)nn3)c(C(=O)OC)cc2F)cc1NC(=O)c1ccc(-n2ccnc2)nn1 [Compound 131]
< 0.05	O=C(Nc1cc(CSCc2cc(NC(=O)c3ccc(-n4ccnc4)nn3)c(C(=O)O)cc2F)c(F)cc1C(=O)O)c1ccc(-n2ccnc2)nn1 [Compound 132]
0.05 to 0.5	COc1nc(C(=O)O)c(NC(=O)c2ccc(-n3ccnc3)nn2)cc1CCCc1cc(NC(=O)c2ccc(-n3ccnc3)nn2)c(C(=O)O)cc1F [Compound 134]

EC50 [µM]	Structure (SMILES)
0.05 to 0.5	O=C(Nc1cc(CCOc2cc(C(=O)O)c(NC(=O)c3ccc(-n4ccnc4)nn3)cc2F)c(F)cc1C(=O)O)c1ccc(-n2ccnc2)nn1 [Compound 141]
0.05 to 0.5	O=C(Nc1cc(OCCc2cc(C(=O)O)c(NC(=O)c3ccc(-n4ccnc4)nn3)cc2F)c(F)cc1C(=O)O)c1ccc(-n2ccnc2)nn1 [Compound 144]
> 5	COC(=O)c1cc(F)c(OCCc2c(OC)cc(NC(=O)c3ccc(-n4ccnc4)nn3)c(C(=O)OC)c2F)cc1NC(=O)c1ccc(-n2ccnc2)nn1 [Compound 150]
0.5 to 5	COC(=O)c1cc(F)c(OCCc2cc(NC(=O)c3ccc(-n4ccnc4)nn3)c(C(O)C(=O)OC)cc2F)cc1NC(=O)c1ccc(-n2ccnc2)nn1 (stereo not drawn) [Compound 152]
< 0.05	COC(=O)c1cc(F)c(COCc2cc(NC(=O)c3ccc(-n4ccnc4)nn3)c(C(=O)OC)cc2F)cc1NC(=O)c1ccc(-n2ccnc2)nn1 [Compound 155]
0.05 to 0.5	COc1cc(C(=O)O)c(NC(=O)c2ccc(-n3ccnc3)nn2)cc1OCCc1cc(C(=O)O)c(NC(=O)c2ccc(-n3ccnc3)nn2)cc1Cl [Compound 156]
0.5 to 5	COC(=O)c1cc(F)c(OCCc2cc(NC(=O)c3ccc(-n4ccnc4)nn3)c(C(=O)OC)cc2C#N)cc1NC(=O)c1ccc(-n2ccnc2)nn1 [Compound 157]
0.05 to 0.5	O=C(Nc1cc(CCCc2cc(NC(=O)c3ccc(-n4ccnc4)nn3)c(C(=O)O)cc2F)c(F)cc1C(=O)O)c1ccc(-c2cn[nH]c2)nn1 [Compound 159]
0.05 to 0.5	N#Cc1cc(C(=O)O)c(NC(=O)c2ccc(-n3ccnc3)nn2)cc1CCOc1cc(NC(=O)c2ccc(-n3ccnc3)nn2)c(C(=O)O)cc1F [Compound 162]
0.5 to 5	COC(=O)c1cc(F)c(CCOc2cc(NC(=O)c3ccc(-n4ccnc4)nn3)c(C(=O)OC)cc2C#N)cc1NC(=O)c1ccc(-n2ccnc2)nn1 [Compound 163]
0.05 to 0.5	O=C(Nc1cc(CCCc2cc(NC(=O)c3ccc(-n4ccnc4)nn3)c(C(=O)O)s2)c(F)cc1C(=O)O)c1ccc(-n2ccnc2)nn1 [Compound 164]
0.05 to 0.5	COC(=O)c1cc(F)c(CCCc2cc(NC(=O)c3ccc(-n4ccnc4)nn3)c(C(=O)OC)s2)cc1NC(=O)c1ccc(-n2ccnc2)nn1 [Compound 165]
0.05 to 0.5	O=C(Nc1cc(OCCc2cc(C(=O)O)c(NC(=O)c3ccc(-n4ccnc4)nn3)cc2Cl)c(F)cc1C(=O)O)c1ccc(-n2ccnc2)nn1 [Compound 166]
0.05 to 0.5	O=C(Nc1cc(OCCCOc2cc(NC(=O)c3ccc(-n4ccnc4)nn3)c(C(=O)O)cc2F)c(F)cc1C(=O)O)c1ccc(-n2ccnc2)nn1 [Compound 168]
0.05 to 0.5	O=C(Nc1cc(OCCc2cc(C(=O)O)c(NC(=O)c3ccc4nnnn4n3)cc2F)c(F)cc1C(=O)O)c1ccc(-n2ccnc2)nn1 [Compound 169]
0.05 to 0.5	O=C(Nc1cc(CCCc2cc(NC(=O)c3ccc(-n4ccnc4)nn3)c(C(=O)O)cc2Cl)c(F)cc1C(=O)O)c1ccc(-n2ccnc2)nn1 [Compound 174]
0.5 to 5	O=C(Nc1cc(COc2cc(NC(=O)c3ccc(-n4ccnc4)nn3)c(C(=O)O)cc2F)c(F)cc1C(=O)O)c1ccc(-n2ccnc2)nn1 [Compound 175]
< 0.05	O=C(Nc1cc(OCCc2c(F)cc(NC(=O)c3ccc(-n4ccnc4)nn3)c(C(=O)O)c2F)c(F)cc1C(=O)O)c1ccc(-n2ccnc2)nn1 [Compound 177]
> 5	O=C(Nc1cc(CCc2cc(C(=O)O)c(NC(=O)c3ccc(-n4ccnc4)nn3)cc2F)c(F)cc1C(=O)O)c1ccc(-n2ccnc2)nn1 [Compound 180]
0.05 to 0.5	N#Cc1cc(C(=O)O)c(NC(=O)c2ccc(-n3ccnc3)nn2)cc1CCCc1cc(NC(=O)c2ccc(-n3ccnc3)nn2)c(C(=O)O)cc1F [Compound 182]
> 5	COC(=O)c1cc(F)c(OCCc2cc(C(=O)OC)c(NC(=O)c3ccc(-n4ccnc4)nn3)cc2C#N)cc1NC(=O)c1ccc(-n2ccnc2)nn1 [Compound 188]
> 5	O=C(Nc1cc(OCc2cc(C(=O)O)c(NC(=O)c3ccc(-n4ccnc4)nn3)cc2F)c(F)cc1C(=O)O)c1ccc(-n2ccnc2)nn1 [Compound 190]
0.05 to 0.5	O=C(Nc1cc(OCCOc2cc(C(=O)O)c(NC(=O)c3ccc(-n4ccnc4)nn3)cc2F)c(F)cc1C(=O)O)c1ccc(-n2ccnc2)nn1 [Compound 191]
0.05 to 0.5	CC(Cc1cc(NC(=O)c2ccc(-n3ccnc3)nn2)c(C(=O)O)cc1F)Cc1cc(NC(=O)c2ccc(-n3ccnc3)nn2)c(C(=O)O)cc1F [Compound 194]
< 0.05	O=C(Nc1cc(CCSc2cc(NC(=O)c3ccc(-n4ccnc4)nn3)c(C(=O)O)cc2F)c(F)cc1C(=O)O)c1ccc(-n2ccnc2)nn1 [Compound 195]
0.05 to 0.5	C=C(Cc1cc(NC(=O)c2ccc(-n3ccnc3)nn2)c(C(=O)O)cc1F)Cc1cc(NC(=O)c2ccc(-n3ccnc3)nn2)c(C(=O)O)cc1F [Compound 199]
0.05 to 0.5	O=C(Nc1cc(OCCc2cc(C(=O)O)c(NC(=O)c3ccc(-c4cn[nH]c4)nn3)cc2F)c(F)cc1C(=O)O)c1ccc(-c2cn[nH]c2)nn1 [Compound 204]
